Measurements reported in publication PMC9721373 (Antiviral Research, 2022).
Structures can show the parent of a compound that is named as a salt. Where two headings read alike, the source gives them in different places.

Columns and labels:
[1] = target: SARS2-S–NRP-1 binding (rS1 / rNRP-1) (Homo sapiens, UniProt O14786)
[2] = tested on: rVSVΔG-GFP/SARS2-S
[3] = tested on: VeroE6/TMPRSS2 cells; details: 10 μM, 17.5 h
[4] = tested on: rVSVΔG-GFP/SARS2-S; test: microbe, parasite or virus in culture; details: Severe acute respiratory syndrome coronavirus 2, HEK-293T
[5] = tested on: rVSVΔG-GFP/SARS2-S; test: microbe, parasite or virus in culture; type: cell-based; details: for rVSVΔG-GFP/SARS2-S GFP (%): 10 μM, HEK293T/ACE2, 16 hpi, GFP-positive cells, vehicle-treated = 100%; for activity at 10 µM: Severe acute respiratory syndrome coronavirus 2, HEK-293T, 16 h, read-out: rVSVΔG-GFP/SARS2-S GFP (%)
[6] = tested on: rVSVΔG-GFP/VSVG; test: microbe, parasite or virus in culture; type: cell-based; details: for activity at 10 µM: Vesicular stomatitis virus, HEK-293T, 16 h, read-out: rVSVΔG-GFP/VSVG GFP (%)
[7] = tested on: HEK293T/ACE2 cells
[8] = target: purified ACE2; details: read-out: dissociation constant (KD), ref Lu et al., 2021; cited from earlier work
[9] = 10 μM, HEK293T/ACE2, 16 hpi, GFP-positive cells, vehicle-treated = 100%

Chain of SARS2-S–NRP-1 binding (rS1 / rNRP-1) (O14786 22-856): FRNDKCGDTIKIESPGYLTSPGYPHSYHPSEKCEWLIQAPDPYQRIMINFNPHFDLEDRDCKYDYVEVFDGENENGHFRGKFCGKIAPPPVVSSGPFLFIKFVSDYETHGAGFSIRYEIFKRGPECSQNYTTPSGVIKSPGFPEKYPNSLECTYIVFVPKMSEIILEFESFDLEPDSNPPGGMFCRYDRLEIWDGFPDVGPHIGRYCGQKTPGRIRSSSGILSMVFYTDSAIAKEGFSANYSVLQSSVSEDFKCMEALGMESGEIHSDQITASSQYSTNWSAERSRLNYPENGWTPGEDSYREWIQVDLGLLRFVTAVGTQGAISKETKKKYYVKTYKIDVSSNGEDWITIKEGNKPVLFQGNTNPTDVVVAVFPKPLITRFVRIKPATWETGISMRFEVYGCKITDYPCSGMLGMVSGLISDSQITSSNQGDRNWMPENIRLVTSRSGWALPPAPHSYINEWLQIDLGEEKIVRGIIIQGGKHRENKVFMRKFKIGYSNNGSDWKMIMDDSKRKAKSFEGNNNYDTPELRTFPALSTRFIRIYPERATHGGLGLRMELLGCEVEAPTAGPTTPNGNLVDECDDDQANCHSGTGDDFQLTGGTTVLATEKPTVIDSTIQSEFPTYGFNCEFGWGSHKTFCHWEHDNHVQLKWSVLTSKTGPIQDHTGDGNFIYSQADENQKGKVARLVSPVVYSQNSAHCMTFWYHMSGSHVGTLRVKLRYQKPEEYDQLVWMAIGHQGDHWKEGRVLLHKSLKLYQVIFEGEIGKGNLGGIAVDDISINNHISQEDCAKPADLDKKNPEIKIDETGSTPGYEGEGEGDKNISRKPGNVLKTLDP

Compound	rVSVΔG-GFP/SARS2-S Hoechst (%) ([7]; human)	rVSVΔG-GFP/VSVG Hoechst (%) ([7]; human)	activity at 10 µM [5]	activity at 10 µM [6]	also measured
CC(CN(C)C)CN1c2ccccc2Sc2ccccc21 (stereo not shown) [Alimemazine tartrate]					NRP1–S1 Binding (Normalized signal intensity) [1]: inhibited; SI (CC50/EC50) [2]: 12.2; VeroE6/TMPRSS2 cell viability [3]: did not affect; EC50 [4]: 2.42 µM
CN(C)CCOc1ccc(/C(=C(/CCCl)c2ccccc2)c2ccccc2)cc1 [Toremifene]	101.27%	90.44%			rVSVΔG-GFP/SARS2-S GFP (%) [5]: 21.77%; rVSVΔG-GFP/VSVG GFP (%) [6, 9]: 142.24%
CSc1ccc2c(c1)N(CCC1CCCCN1C)c1ccccc1S2 (stereo not shown) [Thioridazine hydrochloride]	98.59%	95.38%	15.8%	119%	
CN(C)CCCN1c2ccccc2Sc2ccc(Cl)cc21 [Chlorpromazine hydrochloride]		97.98%			Kd [8]: 13.8 µM
C=CC(=O)Nc1cc(Nc2nccc(-c3cn(C)c4ccccc34)n2)c(OC)cc1N(C)CCN(C)C.CS(=O)(=O)O [AZD-9291 mesylate]					rVSVΔG-GFP/SARS2-S GFP (%) [5]: 5.36%; rVSVΔG-GFP/VSVG GFP (%) [6, 9]: 112.06%; rVSVΔG-GFP/SARS2-S Hoechst (%) [7]: 98.67%; rVSVΔG-GFP/VSVG Hoechst (%) [7]: 98.67%
Fc1ccc([C@@H]2CCNC[C@H]2COc2ccc3c(c2)OCO3)cc1 [Paroxetine hydrochloride]	102.73%	98.03%			
CC(CN(C)C)CN1c2ccccc2CCc2ccccc21 (stereo not shown) [Trimipramine maleate]		99.90%			
COc1cc2c(Nc3ccc(Br)cc3F)ncnc2cc1OCC1CCN(C)CC1 [Vandetanib (ZD6474), Vandetanib]	104.11%	99.04%			
NC(N)=NCCC[C@H](NC(=O)c1sccc1NS(=O)(=O)c1cccc2nsnc12)C(=O)O [EG00229]					concentration required to inhibit SARS2-S–NRP-1 binding [1]: 1 mM
OCCN1CCN(CCCN2c3ccccc3Sc3ccc(C(F)(F)F)cc32)CC1 [Fluphenazine hydrochloride, Fluphenazine dihydrochloride]	103.35%	100.59%	19.3%	106%	
C[C@@H](NCCCc1cccc(C(F)(F)F)c1)c1cccc2ccccc12 [Cinacalcet hydrochloride]	97.33%	95.94%			
Cc1ccc(NC(=O)c2ccc(CN3CCN(C)CC3)cc2)cc1Nc1nccc(-c2cccnc2)n1 [Imatinib Mesylate (STI571), Imatinib Mesylate]	96.53%	94.49%	20.8%		rVSVΔG-GFP/VSVG GFP (%) [6]: 103.15%
CN1CCN(CCCN2c3ccccc3Sc3ccc(C(F)(F)F)cc32)CC1 [Trifluoperazine dihydrochloride]	107.56%	97.29%			Kd [8]: 33.3 µM
CN(C)CCOc1ccc(/C(=C(/CCCl)c2ccccc2)c2ccccc2)cc1 [Toremifene citrate]	99.98%	98.74%			rVSVΔG-GFP/SARS2-S GFP (%) [5]: 8.32%; rVSVΔG-GFP/VSVG GFP (%) [6, 9]: 109.35%
CN1CCN(CCCN2c3ccccc3Sc3ccc(Cl)cc32)CC1 [Prochlorperazine Maleate, Prochlorperazine dimaleate]	97.05%	93.26%	16.6%	131%	
Cc1c(-c2ccc(O)cc2)n(Cc2ccc(OCCN3CCCCCC3)cc2)c2ccc(O)cc12 [Bazedoxifene acetate]	88.96%	102.51%			
Clc1ccc2c(c1)C(N1CCNCC1)=Nc1ccccc1O2 [Amoxapine]	102.06%	99.31%	23.7%	116%	
O=C(c1ccc(OCCN2CCCCC2)cc1)c1c(-c2ccc(O)cc2)sc2cc(O)ccc12 [Raloxifene hydrochloride]	101.70%	103.53%			
CCCCc1oc2ccc(NS(C)(=O)=O)cc2c1C(=O)c1ccc(OCCCN(CCCC)CCCC)cc1 [Dronedarone hydrochloride]	99.72%	101.34%			
OCCN1CCN(CCCN2c3ccccc3Sc3ccc(Cl)cc32)CC1 [Perphenazine]		86.64%			
CC[C@H]1OC(=O)[C@H](C)[C@@H](O[C@H]2C[C@@](C)(OC)[C@@H](O)[C@H](C)O2)[C@H](C)[C@@H](O[C@@H]2O[C@H](C)C[C@H](N(C)C)[C@H]2O)[C@](C)(O)C[C@@H](C)CN(C)[C@H](C)[C@@H](O)[C@]1(C)O [Azithromycin dihydrate]	100.22%	101.30%			
CNCCC=C1c2ccccc2CCc2ccccc21 [Nortriptyline hydrochloride]	81.23%	76.77%	17.4%	91.7%	
CN[C@H]1CC[C@@H](c2ccc(Cl)c(Cl)c2)c2ccccc21 [Sertraline hydrochloride]	101.27%	97.33%	15.8%	105%	
CN1CC2c3ccccc3Oc3ccc(Cl)cc3C2C1 (stereo not shown) [Asenapine Maleate, Asenapine maleate]	98.20%	95.98%			
CN1CCC[C@@H]1CCO[C@](C)(c1ccccc1)c1ccc(Cl)cc1 [Clemastine fumarate]	106.94%	101.47%	12.5%	105%	
CC/C(=C(\c1ccccc1)c1ccc(OCCN(C)C)cc1)c1ccccc1 [Tamoxifen citrate]	99.67%	97.14%	16.3%	106%	
